These results are taken from PubChem BioAssay (NCI).

Molecules are shown by their SMILES.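 How tested: cells in 96-well plates exposed to compound for 48 hours at five concentrations. GI50 = concentration required for 50% inhibition of growth. TGI is the concentration that stops growth completely.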

Some test systems named below: 786-0 renal; CCRF-CEM leukemia; HCT-15 colon; NCI-H522 lung; OVCAR-8 ovarian; SK-MEL-28 melanoma; UO-31 renal; EKVX NSCLC; PC-3 prostate.
What all share (test): NCI-60 cell line screen, 48 h

As for `O=C(CCc1nnc2s/c(=C\c3ccc([N+](=O)[O-])cc3)c(=O)n12)Nc1ccc(Cl)c(Cl)c1`, the TGI with 786-0 renal was 35.7 µM; with CCRF-CEM leukemia, 51 µM; in the assay on HCT-15 colon, over 100 µM; in the assay with NCI-H522 lung it was 32.3 µM; in the assay on OVCAR-8 ovarian, 38.9 µM; in the assay on SK-MEL-28 melanoma, 63.8 µM. In the assay on UO-31 renal, this molecule showed a TGI of over 100 µM.
As to `C[C@@H]1C(=O)CC2C(C)(C)CCC[C@]2(C)[C@@]12CC[C@]1(C=COC1)O2` (some centres undefined), the TGI in the assay on 786-0 renal is over 100 µM; in the assay on CCRF-CEM leukemia, 70.8 µM; in the assay on EKVX NSCLC it was over 100 µM; with HCT-15 colon, over 100 µM; with NCI-H522 lung, 50 µM; in the assay on OVCAR-8 ovarian it was over 100 µM. In the assay with UO-31 renal, this molecule showed a TGI of over 100 µM.
For `CN(C)CC1CC/C(=C\c2ccc(Cl)c(Cl)c2)C1=O` (centres undefined), the TGI in the assay on 786-0 renal was 26.7 µM; in the assay with CCRF-CEM leukemia it was 22.7 µM; in the assay with EKVX NSCLC, over 58.7 µM; with HCT-15 colon it was over 43.1 µM; in the assay with NCI-H522 lung, 17.7 µM; with OVCAR-8 ovarian it was over 58.9 µM. For the same molecule, the figures for the TGI in the assay with SK-MEL-28 melanoma and with UO-31 renal were over 84.8 µM and over 55.9 µM, respectively.
Turning to `Cc1c(C(Cc2ccccc2N(C)C(=O)/C=C\C(=O)O)c2c[nH]c3ccccc23)c2ccccc2n1C` (centres undefined), the TGI was found to be 35.9 µM in the assay with 786-0 renal; 37.1 µM in the assay with CCRF-CEM leukemia; 33.1 µM in the assay on EKVX NSCLC; 29.3 µM in the assay with HCT-15 colon; 28.6 µM in the assay on NCI-H522 lung; 29.4 µM in the assay with OVCAR-8 ovarian. In addition, in the assay with UO-31 renal, the TGI is 27.7 µM.
Turning to `NC1=C(O)c2cccc3cccc(c23)C1=O`, the TGI in the assay on 786-0 renal, in the assay on CCRF-CEM leukemia, with EKVX NSCLC, in the assay on HCT-15 colon, with NCI-H522 lung and with OVCAR-8 ovarian was over 100 µM in each case. Also, the TGI in the assay on SK-MEL-28 melanoma and in the assay on UO-31 renal was over 100 µM in each case.
For the molecule `Cc1cc(N(CCC#N)CCC#N)ccc1/C=C(\NC(=O)/C=C/c1ccccc1)C(=O)N=[N+]=[N-]`, the TGI with 786-0 renal, in the assay on CCRF-CEM leukemia, with EKVX NSCLC, in the assay with HCT-15 colon, in the assay on NCI-H522 lung and with OVCAR-8 ovarian was over 100 µM in each case. Further, the TGI in the assay with SK-MEL-28 melanoma and in the assay with UO-31 renal was over 100 µM throughout.
As to `CN(C)CCC(N)(P(=O)([O-])[O-])P(=O)([O-])[O-].N.N.[Pt+2]`, the GI50 with 786-0 renal was over 100 µM; with CCRF-CEM leukemia, over 100000 nM; in the assay with EKVX NSCLC, over 100 µM; with HCT-15 colon, over 100000 nM; in the assay with NCI-H522 lung it was over 100 µM; in the assay with OVCAR-8 ovarian it was over 100 µM. The GI50 in the assay on SK-MEL-28 melanoma and in the assay on UO-31 renal was over 100 µM throughout. Further, the TGI in the assay with 786-0 renal, with CCRF-CEM leukemia, with EKVX NSCLC, with HCT-15 colon, with NCI-H522 lung and in the assay with OVCAR-8 ovarian was over 100 µM in each case. Further, the TGI in the assay on SK-MEL-28 melanoma and with UO-31 renal was over 100 µM in each case.
For `O=S1OC(c2ccccc2)(c2ccccc2)C(c2ccccc2)(c2ccccc2)O1`, the TGI in the assay with 786-0 renal, with CCRF-CEM leukemia, with EKVX NSCLC, with HCT-15 colon, in the assay on NCI-H522 lung and in the assay on OVCAR-8 ovarian was over 100 µM throughout. The TGI with SK-MEL-28 melanoma and with UO-31 renal was over 100 µM each time.
In the case of `N#CC(C(=O)CCCC(=O)Nc1ccccc1[N+](=O)[O-])c1c(Cl)cccc1Cl` (centres undefined), the TGI in the assay on 786-0 renal, in the assay with CCRF-CEM leukemia, in the assay with EKVX NSCLC, with HCT-15 colon, in the assay with NCI-H522 lung and with OVCAR-8 ovarian was over 100 µM in each case. The TGI with SK-MEL-28 melanoma and with UO-31 renal was over 100 µM in each case.
With `COC(=O)C(=O)C(C#N)c1nc2ccccc2s1` (centres undefined), the TGI with 786-0 renal, in the assay with CCRF-CEM leukemia, in the assay on EKVX NSCLC, in the assay with HCT-15 colon, in the assay on NCI-H522 lung and in the assay with OVCAR-8 ovarian was over 100 µM in each case. Also, the TGI with SK-MEL-28 melanoma and with UO-31 renal was over 100 µM throughout.
On to `NC(N)NCCCc1cn2c(n1)C1CCCN1C(=O)C2Cc1ccccc1` (centres undefined), for which the TGI in the assay with 786-0 renal, in the assay with CCRF-CEM leukemia, with EKVX NSCLC, in the assay on HCT-15 colon, in the assay with NCI-H522 lung and in the assay with OVCAR-8 ovarian was over 100 µM each time. The TGI in the assay with SK-MEL-28 melanoma and with UO-31 renal was over 100 µM throughout.
In the case of `O=C([CH-]C(=O)c1ccccc1)c1ccccc1.O=C([CH-]C(=O)c1ccccc1)c1ccccc1.O=C([CH-]C(=O)c1ccccc1)c1ccccc1.[Ga+3]`, the GI50 in the assay on 786-0 renal is over 100 µM; in the assay with NCI-H522 lung it was 19.3 µM; in the assay on OVCAR-8 ovarian, over 100 µM; in the assay on SK-MEL-28 melanoma it was over 100 µM; in the assay on UO-31 renal, 30.2 µM. For the same molecule, the TGI in the assay on 786-0 renal is over 100 µM; in the assay with NCI-H522 lung, 68.6 µM; with OVCAR-8 ovarian, over 100 µM; in the assay on SK-MEL-28 melanoma, over 100 µM; in the assay with UO-31 renal, over 100 µM.
For `CC(=O)OC(C)(C)C1CC[C@]2(C)/C=C/C(C)C[C@@H](O)/C=C(\C)CC(O)C12` (some centres undefined), the TGI in the assay on 786-0 renal, with CCRF-CEM leukemia, in the assay with EKVX NSCLC, in the assay on HCT-15 colon, with OVCAR-8 ovarian and with SK-MEL-28 melanoma was over 100 µM each time. In the assay on UO-31 renal, the TGI was over 100 µM.
On to `O=C(CCc1n[nH]c(=S)o1)Nc1cc(Cl)ccc1Cl`, for which the TGI in the assay on 786-0 renal is 99.2 µM; in the assay with CCRF-CEM leukemia, over 100 µM; in the assay with EKVX NSCLC, over 100 µM; with HCT-15 colon it was 38.8 µM; in the assay with OVCAR-8 ovarian, over 100 µM; in the assay with SK-MEL-28 melanoma, over 100 µM. In addition, the TGI with UO-31 renal was over 100 µM.
As for `COc1ccc(C(=O)C(C(=O)CCC(=O)Nc2ccc(Cl)c(Cl)c2)c2ccc(OC)cc2)cc1` (centres undefined), the TGI with 786-0 renal, with CCRF-CEM leukemia, with EKVX NSCLC, with HCT-15 colon, in the assay with NCI-H522 lung and in the assay on OVCAR-8 ovarian was over 100 µM in each case. The TGI in the assay with SK-MEL-28 melanoma and with UO-31 renal was over 100 µM in each case.
Take `CC(C)=CCC/C(C)=C/CC/C(C)=C/CSC[C@H](NC(=O)CCCCCN1CCN(C)CC1)C(=O)NC1CCCCCC1`: the GI50 with 786-0 renal is 1.77 µM; in the assay on CCRF-CEM leukemia, 2350 nM; with HCT-15 colon, 1940 nM; in the assay on OVCAR-8 ovarian, 3.33 µM; in the assay with PC-3 prostate, 1890 nM; in the assay on SK-MEL-28 melanoma, 1.7 µM. The GI50 in the assay with UO-31 renal was 1.58 µM. In addition, the TGI in the assay with 786-0 renal was 3.19 µM; with CCRF-CEM leukemia, 7.07 µM; in the assay with HCT-15 colon it was 3.93 µM; with OVCAR-8 ovarian it was 12.2 µM; in the assay on PC-3 prostate it was 4.31 µM; with SK-MEL-28 melanoma, 3.32 µM. The TGI in the assay with UO-31 renal is 3.22 µM.
As to `O=C(/C=C/c1ccccc1)NC1C=Nc2ccc([N+](=O)[O-])cc2NC1=O` (centres undefined), the TGI in the assay with 786-0 renal, in the assay on CCRF-CEM leukemia, in the assay on EKVX NSCLC, in the assay on HCT-15 colon, in the assay on NCI-H522 lung and with OVCAR-8 ovarian was over 100 µM each time. In addition, the TGI in the assay on SK-MEL-28 melanoma and in the assay on UO-31 renal was over 100 µM in each case.
For the molecule `CC(C)(CN1CCCCC1)C(=O)/C=C/c1ccccc1`, the TGI in the assay with 786-0 renal was determined as 27.3 µM; with CCRF-CEM leukemia, 35.4 µM; in the assay on EKVX NSCLC it was 35.2 µM; with HCT-15 colon it was 67.2 µM; in the assay on NCI-H522 lung, 26.8 µM; in the assay with OVCAR-8 ovarian, 49.5 µM. Besides, the TGI with SK-MEL-28 melanoma was 33 µM; in the assay with UO-31 renal, 39.6 µM.
Turning to `C/C(CN1C(=O)c2ccccc2C1=O)=N\NS(=O)(=O)c1ccc2ccccc2c1`, the TGI with 786-0 renal, in the assay on CCRF-CEM leukemia, in the assay on EKVX NSCLC, with HCT-15 colon, with NCI-H522 lung and in the assay on OVCAR-8 ovarian was over 100 µM throughout. Moreover, the TGI in the assay with SK-MEL-28 melanoma and in the assay with UO-31 renal was over 100 µM in each case.
Regarding `O=C1C2C3CC4C5C3C1C5C1(SCCS1)C42` (centres undefined), the TGI in the assay on 786-0 renal, with CCRF-CEM leukemia, with HCT-15 colon, in the assay on NCI-H522 lung, with OVCAR-8 ovarian and in the assay with SK-MEL-28 melanoma was over 100 µM throughout. In addition, the TGI in the assay on UO-31 renal is over 100 µM.
On to `COc1ccc(C2COc3c(ccc(OC)c3OC)C2=O)cc1OC` (centres undefined), for which the TGI with 786-0 renal, in the assay with CCRF-CEM leukemia, with EKVX NSCLC, with NCI-H522 lung, in the assay on OVCAR-8 ovarian and in the assay with SK-MEL-28 melanoma was over 100 µM throughout. The molecule also returned a TGI with UO-31 renal of over 100 µM.
Turning to `COc1nc(NC2OC(COC(C)=O)C(OC(C)=O)C(OC(C)=O)C2OC(C)=O)c(N=CC=Nc2c(NC3OC(COC(C)=O)C(OC(C)=O)C(OC(C)=O)C3OC(C)=O)nc(OC)[nH]c2=O)c(=O)[nH]1` (centres undefined), the TGI with 786-0 renal, in the assay on CCRF-CEM leukemia, in the assay on EKVX NSCLC, in the assay on NCI-H522 lung, with OVCAR-8 ovarian and in the assay with SK-MEL-28 melanoma was over 100 µM each time. The TGI in the assay on UO-31 renal was over 100 µM.
